Measured values published in patent US20230302022A1, “PREVENTING OR MITIGATING CHEMOTHERAPY INDUCED ALOPECIA USING VITAMIN D” (priority 2016, published 2023).
“Also recorded” adds a separate entry of the source.

Tests used:
HEKa cells = experiment: HEKa keratinocyte growth / viability assay, with and without chemotherapy drugs; assay type: cell-based, human
Protocol: All experiments were conducted in 96-well plate format. Each well contained the same amount of HEKa cells in about 100 μL of media (usually between 2,000-5,000 cell/well). Calcitriol was dissolved in ethanol to make a stock solution. The stock solution was serially diluted 1:2 in the growth media, covering a range of between 4.0 μg/mL to about 15.5 ng/mL (9 test concentrations). […] All experiments were conducted in duplicates.
In these experiments, a selected commercial drug was serially diluted, starting at a concentration 4-times higher than the final desired concentration for cell incubation.
(§1) The drug treatment period was usually three days. At the end of the three days, the background OD of the 96-well plate was read at 280 nm, before 20 μL of the “Substrate Cell Titer 96 Aqueous One Solution Reagent” (Promega) was added to each well. The plate was returned to the 37° C. incubator, and its OD at 490 nm was read each hour until an OD of approximately 1.5 was reached. The net OD increase was calculated by subtracting the pre-substrate OD reading.
The impact of the drug on the cells was calculated by comparing the OD at different concentrations in relation to the OD of the control wells (without the drug). The results of the Net OD as a function of drug concentration was plotted and used to determine ED50 values.
(§2) Then these pretreated cells were utilized to set up the cell based assay.
Three commonly used chemotherapy drugs (doxorubicin, cisplatin and erlotinib) were selected to evaluate calcitriol treated cells. […] In these experiments, the commercial drugs were serially diluted, starting at a concentration 4-times higher than the final desired concentration for cell incubation.

[1] = system: squamous cell carcinoma and human prostate cell carcinoma; conditions: 2.5 μg 3 doses daily for 3 days, followed by paclitaxel; cited from earlier work
[2] = system: PaCa2 (pancreatic carcinoma); experiment: Cell growth / viability assay, PaCa2; assay type: cell-based
Protocol: as §1
The impact of the drug on the cells was calculated by comparing the OD at different concentrations in relation to the OD of the control wells (without the drug).
as §2

BALB/c mice = conditions: cited from earlier work
[3] = system: NIH-3T3 (immortalized fibroblast); experiment: Cell growth / viability assay, NIH-3T3; assay type: cell-based
Protocol: The drug treatment period was usually three days. At the end of the three days, the background OD of the 96-well plate was read at 280 nm, before 20 μL of the “Substrate Cell Titer 96 Aqueous One Solution Reagent” (Promega) was added to each well. […] The net OD increase was calculated by subtracting the pre-substrate OD reading. The impact of the drug on the cells was calculated by comparing the OD at different concentrations in relation to the OD of the control wells (without the drug). The results of the Net OD as a function of drug concentration was plotted and used to determine ED50 values.

[4] = system: EMT-6 murine breast tumor; conditions: topical pretreatment + cyclophosphamide vs either agent alone; cited from earlier work
patients = experiment: Phase I study: chemotherapy-induced alopecia in patients; assay type: in vivo, human; conditions: patients at all dose levels, weeks 7 and 15 vs baseline
Description: Photographic assessment will be performed using a Canon Power Shot G12 camera system to ensure standardization and uniformity among all enrolled patients. The following five views will be obtained at each photographic assessment: bilateral sides of head/scalp view, front of head/face view, back of head/scalp view, and top of head/scalp view. Additionally, close-up photographs will be taken at the same times points. […] Photographs will be standardized for lighting, camera angle, and position to the participants head. These assessments will be performed at the following time points: at baseline, weeks 7, 15, 27, and 54. Photographs for patients in each cohort representing baseline, and treatment weeks 7 and 15 will be presented blind to the study principle investigator after at least 3 patients have completed 15 weeks of treatment. Photographs will also be taken at week 27 and week 54 of the study but will be included in the final photographic assessment as secondary information. […]
Subjective record of hair and scalp. Alopecia will also be subjectively recorded through the patient self-reported diaries. […]
Each patient underwent PK analysis, adverse event monitoring, patient self-assessment diaries (1-10 scale), and blinded photographic assessments. […] Toxicity was determined on a weekly basis during Cycle 1 (i.e., the first 28 days of topical agent application) and subsequently every four weeks. […]

[5] = 0.1 μg/mL calcitriol, low dosage levels

## C=C1/C(=C\C=C2/CCC[C@]3(C)[C@@H]([C@H](C)CCCC(C)(C)O)CC[C@@H]23)C[C@@H](O)C[C@@H]1O [Calcitriol, (5Z,7E)-9,10-secocholesta-5,7.10(19Hriene-1 a,33.25-triol]
HEKa cells; 0.1 μg/mL calcitriol
  protective effect against 5-FU: protects; also recorded: mild protective effect; also recorded: some levels of protection
  protective effect against doxorubicin: did not appear to provide a significant protective effect
  protective effect against gemcitabine: mild protective effect
  protective effect against irinotecan: positive protective effect
  protective effect against paclitaxel (Paxlitaxol): some protective effects
  protective effect against tamoxifen: weak
HEKa cells; 0.1 μg/mL calcitriol for two cell passages
  HEKa growth after prolonged calcitriol exposure: stopped growing
HEKa cells; [5]
  protection against carboplatin: moderate level of protection
  protection against cisplatin: moderate level of protection
HEKa cells; 0.1 μg/mL calcitriol, low drug dosage levels
  protective effect against kinase inhibitor drugs (erlotinib, gefitinib, sorafenib, dasatinib, staurosporin): protected the HEKa cells
HEKa cells; 0.1 μg/mL calcitriol, 5-FU, doxorubicin, tamoxifen, irinotecan, paclitaxel, carboplatin, staurosporin, vincristine, cisplatin, erlotinib, gemcitabine, imatinib, gefitinib, sorafenib, dasatinib
  interaction (synergy) between calcitriol and commercial drugs: no interaction
HEKa cells; 0.1 μg/mL calcitriol, doxorubicin, cisplatin, erlotinib
  chemoprotective effect: pre-treatment group vs simultaneous treatment group: nearly identical
HEKa cells; lowest levels of calcitriol (tested range about 0.008-2.0 μg/mL)
  stimulation of HEKa cell growth: 10-20%
HEKa cells; tested range about 0.008-2.0 μg/mL
  calcitriol concentration at which HEKa cell growth is inhibited: ≥ 1.0 µg/mL
[1]
  tumor response: significant tumor regression
[2]; PaCa2, wide range of calcitriol concentrations
  effect of calcitriol on cell growth: no significant growth promoting or growth inhibiting effects; also recorded: not responsive
[2]; PaCa-2
  effect of calcitriol on the cytotoxic effect of Doxorubicin: did not appear to appreciably alter
[2]; PaCa-2, 0.1 μg/mL calcitriol
  5-FU ED50 curve with vs without calcitriol: not significantly different
[2]; PaCa-2, 0.1 μg/mL calcitriol for two passages
  response to doxorubicin, cisplatin and erlotinib after calcitriol exposure: did not alter
BALB/c mice; EMT-6, vs female mice without tumor and tumor-bearing males
  protective effect in tumor-bearing female mice: more efficient protective effect
BALB/c mice; EMT-6 tumor cells
  protective effect in tumor-bearing male mice: diminished
BALB/c mice; male BALB/c mice, topical 5 days prior to cyclophosphamide
  degree of CIA: significantly reduced the degree of CIA in a dose-dependent manner
BALB/c mice; mouse, in vivo
  apoptosis staining pattern vs unexposed mice: no significant differences in apoptosis staining pattern
[3]
  effect of calcitriol on cell growth: no significant growth promoting or growth inhibiting effects
  effect of calcitriol on the cytotoxic effect of Doxorubicin: did not appear to appreciably alter
[4]
  rate of tumor growth: greater reduction in the rate of tumor growth
patients
  chemotherapy induced alopecia: diminished chemotherapy induced alopecia
